Assay results taken from PubChem BioAssay (NCI).
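In this assay, cells in 96-well plates receive the compound at five concentrations for 48 hours. Endpoints are linearly interpolated between the surrounding concentrations. The concentration for 50% growth inhibition is given as GI50. TGI denotes the concentration required for complete inhibition of growth.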

Legend:
Test in all cases: NCI tumour cell line growth inhibition, 48 h
786-0 renal = tested on: 786-0 renal
A549 NSCLC = tested on: A549 NSCLC
BT-549 breast = tested on: BT-549 breast
CAKI-1 renal = tested on: CAKI-1 renal
COLO 205 colon = tested on: COLO 205 colon
DU-145 prostate = tested on: DU-145 prostate
EKVX NSCLC = tested on: EKVX NSCLC
HCT-116 colon = tested on: HCT-116 colon
HCT-15 colon = tested on: HCT-15 colon
HL-60(TB) leukemia = tested on: HL-60(TB) leukemia
HOP-62 NSCLC = tested on: HOP-62 NSCLC
HS 578T breast = tested on: HS 578T breast
IGROV1 ovarian = tested on: IGROV1 ovarian
K-562 leukemia = tested on: K-562 leukemia
KM12 colon = tested on: KM12 colon
LOX IMVI melanoma = tested on: LOX IMVI melanoma
M14 melanoma = tested on: M14 melanoma
MDA-MB-231 breast = tested on: MDA-MB-231 breast
MDA-MB-435 = tested on: MDA-MB-435
MOLT-4 leukemia = tested on: MOLT-4 leukemia
NCI-H226 lung = tested on: NCI-H226 lung
NCI-H460 lung = tested on: NCI-H460 lung
NCI-H522 lung = tested on: NCI-H522 lung
NCI/ADR-RES ovarian = tested on: NCI/ADR-RES ovarian
OVCAR-3 ovarian = tested on: OVCAR-3 ovarian
OVCAR-4 ovarian = tested on: OVCAR-4 ovarian
OVCAR-5 ovarian = tested on: OVCAR-5 ovarian
OVCAR-8 ovarian = tested on: OVCAR-8 ovarian
PC-3 prostate = tested on: PC-3 prostate
RPMI-8226 leukemia = tested on: RPMI-8226 leukemia
RXF 393 renal = tested on: RXF 393 renal
SF-268 CNS = tested on: SF-268 CNS
SF-295 CNS = tested on: SF-295 CNS
SF-539 CNS = tested on: SF-539 CNS
SK-MEL-2 melanoma = tested on: SK-MEL-2 melanoma
SK-MEL-28 melanoma = tested on: SK-MEL-28 melanoma
SK-MEL-5 melanoma = tested on: SK-MEL-5 melanoma
SK-OV-3 ovarian = tested on: SK-OV-3 ovarian
SN12C renal = tested on: SN12C renal
SNB-19 CNS = tested on: SNB-19 CNS
SNB-75 CNS = tested on: SNB-75 CNS
SR leukemia = tested on: SR leukemia
SW-620 colon = tested on: SW-620 colon
T-47D breast = tested on: T-47D breast
TK-10 renal = tested on: TK-10 renal
U251 CNS = tested on: U251 CNS
UACC-257 melanoma = tested on: UACC-257 melanoma
UACC-62 melanoma = tested on: UACC-62 melanoma
UO-31 renal = tested on: UO-31 renal

## CC1OC(OC2C(O)C(OCCc3ccc(O)c(O)c3)OC(CO)C2OC(=O)/C=C/c2ccc(O)c(O)c2)C(O)C(O)C1OC1OCC(O)(CO)C1O (stereo not drawn)
786-0 renal
  GI50: 44.6 µM
  TGI: > 100 µM
A549 NSCLC
  GI50: > 100 µM
  TGI: > 100 µM
BT-549 breast
  GI50: 19.8 µM
  TGI: 42.2 µM
CAKI-1 renal
  GI50: 7.71 µM
  TGI: > 100 µM
COLO 205 colon
  GI50: > 100 µM
  TGI: > 100 µM
DU-145 prostate
  GI50: 30.1 µM
  TGI: > 100 µM
EKVX NSCLC
  GI50: > 100 µM
  TGI: > 100 µM
HCT-116 colon
  GI50: 20.3 µM
  TGI: 47.7 µM
HCT-15 colon
  GI50: > 100 µM
  TGI: > 100 µM
HL-60(TB) leukemia
  GI50: 69.8 µM
  TGI: > 100 µM
HOP-62 NSCLC
  GI50: > 100 µM
  TGI: > 100 µM
HS 578T breast
  GI50: > 100 µM
  TGI: > 100 µM
IGROV1 ovarian
  GI50: > 100 µM
  TGI: > 100 µM
K-562 leukemia
  GI50: 39.3 µM
  TGI: > 100 µM
KM12 colon
  GI50: > 100 µM
  TGI: > 100 µM
LOX IMVI melanoma
  GI50: 17.2 µM
  TGI: 35.3 µM
M14 melanoma
  GI50: > 100 µM
  TGI: > 100 µM
MDA-MB-231 breast
  GI50: > 100 µM
  TGI: > 100 µM
MDA-MB-435
  GI50: 16.1 µM
  TGI: 35.3 µM
MOLT-4 leukemia
  GI50: 55.6 µM
  TGI: > 100 µM
NCI-H226 lung
  GI50: > 100 µM
  TGI: > 100 µM
NCI-H460 lung
  GI50: 96.9 µM
  TGI: > 100 µM
NCI-H522 lung
  GI50: > 100 µM
  TGI: > 100 µM
NCI/ADR-RES ovarian
  GI50: 89 µM
  TGI: > 100 µM
OVCAR-3 ovarian
  GI50: 27.4 µM
  TGI: > 100 µM
OVCAR-4 ovarian
  GI50: > 100 µM
  TGI: > 100 µM
OVCAR-5 ovarian
  GI50: > 100 µM
  TGI: > 100 µM
OVCAR-8 ovarian
  GI50: > 100 µM
  TGI: > 100 µM
PC-3 prostate
  GI50: 850 nM
  TGI: > 100 µM
RPMI-8226 leukemia
  GI50: 38.5 µM
  TGI: > 100 µM
RXF 393 renal
  GI50: > 100 µM
  TGI: > 100 µM
SF-268 CNS
  GI50: 14.1 nM
  TGI: 23.7 µM
SF-295 CNS
  GI50: > 100 µM
  TGI: > 100 µM
SF-539 CNS
  GI50: 24.6 µM
  TGI: 79 µM
SK-MEL-2 melanoma
  GI50: > 100 µM
  TGI: > 100 µM
SK-MEL-28 melanoma
  GI50: > 100 µM
  TGI: > 100 µM
SK-MEL-5 melanoma
  GI50: > 100 µM
  TGI: > 100 µM
SK-OV-3 ovarian
  GI50: > 100 µM
  TGI: > 100 µM
SN12C renal
  GI50: > 100 µM
  TGI: > 100 µM
SNB-19 CNS
  GI50: > 100 µM
  TGI: > 100 µM
SNB-75 CNS
  GI50: > 100 µM
  TGI: > 100 µM
SR leukemia
  GI50: 52.1 µM
  TGI: > 100 µM
SW-620 colon
  GI50: 25 µM
  TGI: 57.9 µM
T-47D breast
  GI50: > 100 µM
  TGI: > 100 µM
TK-10 renal
  GI50: > 100 µM
  TGI: > 100 µM
U251 CNS
  GI50: > 100 µM
  TGI: > 100 µM
UACC-257 melanoma
  GI50: > 100 µM
  TGI: > 100 µM
UACC-62 melanoma
  GI50: > 100 µM
  TGI: > 100 µM
UO-31 renal
  GI50: > 100 µM
  TGI: > 100 µM
